# Measured values as given in patent US20070128217A1 (priority 2003, published 2007).
# What was measured:
# [1] = test system: antibodies in sera from SARS patients (sera 1a, 1b, 2, 6, 37, 62, London, SARS-yellow, SARS-green); assay type: binding, human; parameters: Binding of serum 6 to linear peptides of protein X1 of SARS-CoV Urbani / Binding of serum 37 to linear peptides of protein X1 of SARS-CoV Urbani / Binding of serum 6 to looped/cyclic peptide (PEPSCAN-ELISA) / Binding of serum 37 to looped/cyclic peptide (PEPSCAN-ELISA) / Binding of serum 37 to looped/cyclic peptides of protein X1 of SARS-CoV Urbani / Binding of serum 6 to linear peptides of protein X2 / Binding of serum 37 to linear peptides of protein X2 / Binding of serum 37 to looped/cyclic peptides of protein X2 of SARS-CoV Urbani / Binding of serum 6 to linear peptides of protein M of SARS-CoV Urbani / Binding of serum 37 to linear peptides of protein M of SARS-CoV Urbani / Binding of serum 6 to looped/cyclic peptides of protein M of SARS-CoV Urbani / Binding of serum 37 to looped/cyclic peptides of protein M of SARS-CoV Urbani / Binding of serum 6 to linear peptides of protein X3 of SARS-CoV Urbani / Binding of serum 37 to linear peptides of protein X3 of SARS-CoV Urbani / Binding of serum 37 to looped/cyclic peptides of protein X3 of SARS-CoV Urbani / Binding of serum 6 to linear peptides of protein X4 of SARS-CoV Urbani / Binding of serum 37 to linear peptides of protein X4 of SARS-CoV Urbani / Binding of serum 37 to looped/cyclic peptides of protein X4 of SARS-CoV Urbani / Binding of serum 6 to linear peptides of protein X5 of SARS-CoV Urbani / Binding of serum 37 to linear peptides of protein X5 of SARS-CoV Urbani / Binding of serum 37 to looped/cyclic peptides of protein X5 of SARS-CoV Urbani / Binding of serum 6 to linear peptides of protein N of SARS-CoV Urbani / Binding of serum 37 to linear peptides of protein N of SARS-CoV Urbani / Binding of serum 6 to linear peptide (PEPSCAN-ELISA) / Binding of serum 1a to looped/cyclic peptides of protein N of SARS-CoV Urbani / Binding of serum 1b to looped/cyclic peptides of protein N of SARS-CoV Urbani / Binding of serum 2 to looped/cyclic peptides of protein N of SARS-CoV Urbani / Binding of serum 6 to looped/cyclic peptides of protein N of SARS-CoV Urbani / Binding of serum 37 to looped/cyclic peptides of protein N of SARS-CoV Urbani / Binding of serum 62 to looped/cyclic peptides of protein N of SARS-CoV Urbani / Binding of serum London to looped/cyclic peptides of protein N of SARS-CoV Urbani / Binding of serum SARS-green to looped/cyclic peptides of protein N of SARS-CoV Urbani: unit not given here
# [2] = test system: control sera (pooled serum of ten healthy LUMC hospital workers; commercial negative donor pooled serum from the Dutch bloodbank); assay type: binding, human; parameters: Binding of Control serum LUMC to linear peptides / Binding of Control serum Blood-bank to linear peptides / Binding of Control serum LUMC to looped peptides / Binding of Control Serum Blood-Bank to Looped peptides / Binding of Control serum LUMC to linear peptides of the protein M of SARS-CoV Urbani / Binding of Control serum Blood-bank to linear peptides of the protein M of SARS-CoV Urbani / Binding of Control serum LUMC to looped peptides of the protein M of SARS-CoV Urbani / Binding of Control Serum Blood-Bank to Looped peptides of the protein M of SARS-CoV Urbani: unit not given here
# [3] = test system: rabbit serum obtained by immunizing a rabbit with the SARS-CoV strain Frankfurt 1; assay type: binding; parameters: Binding of a rabbit serum to linear peptides / Binding of a rabbit serum to looped peptides / Rabbit serum linear peptides / Rabbit serum looped peptides / Binding of a rabbit serum to linear peptides of protein N of SARS-CoV Urbani (Rabbit serum linear peptides) / Binding of a rabbit serum to looped/cyclic peptides of protein N of SARS-CoV Urbani (Rabbit serum looped peptides): unit not given here
Sequence,Binding of serum 1a to linear peptides of protein X1 of SARS-CoV Urbani [1],Binding of serum 1a to looped/cyclic peptide (PEPSCAN-ELISA) [1],Binding of serum 1b to linear peptides of protein X1 of SARS-CoV Urbani [1],Binding of serum 1b to looped/cyclic peptide (PEPSCAN-ELISA) [1],Binding of serum 2 to linear peptides of protein X1 of SARS-CoV Urbani [1],Binding of serum 2 to looped/cyclic peptide (PEPSCAN-ELISA) [1],Binding of serum 6 to linear peptides of protein X1 of SARS-CoV Urbani [1],Binding of serum 6 to looped/cyclic peptide (PEPSCAN-ELISA) [1],Binding of serum 37 to linear peptides of protein X1 of SARS-CoV Urbani [1],Binding of serum 37 to looped/cyclic peptide (PEPSCAN-ELISA) [1],Binding of serum 62 to linear peptides of protein X1 of SARS-CoV Urbani [1],Binding of serum London to linear peptides of protein X1 of SARS-CoV Urbani [1],Binding of serum SARS-green to linear peptides of protein X1 of SARS-CoV Urbani [1],Binding of serum SARS-yellow to linear peptides of protein X1 of SARS-CoV Urbani [1],Binding of Control Serum Blood-Bank to Looped peptides [2],Binding of Control serum Blood-bank to linear peptides [2],Binding of Control serum LUMC to linear peptides [2],Binding of Control serum LUMC to looped peptides [2],Binding of a rabbit serum to linear peptides [3],Binding of a rabbit serum to looped peptides [3],further results
IYSHLLLVAAGMEAQ,0.6,0.5,0.5,0.4,0.5,0.3,0.4,0.3,0.6,0.5,0.6,0.3,0.2,0.3,0.4,0.5,0.5,0.5,0.1,0.4,Binding of serum 62 to looped/cyclic peptide (PEPSCAN-ELISA) [1]: 0.5; Binding of serum London to looped/cyclic peptide (PEPSCAN-ELISA) [1]: 0.2; Binding of serum SARS-green to looped/cyclic peptide (PEPSCAN-ELISA) [1]: 0.2; Binding of serum SARS-yellow to looped/cyclic peptide (PEPSCAN-ELISA) [1]: 0.2
KCKSKNPLLYDANYF,0.7,0.7,0.4,0.5,0.5,0.4,0.5,0.4,0.6,0.8,0.5,0.2,0.2,0.4,0.7,0.6,0.5,0.7,0.2,0.6,Binding of serum 62 to looped/cyclic peptide (PEPSCAN-ELISA) [1]: 0.7; Binding of serum London to looped/cyclic peptide (PEPSCAN-ELISA) [1]: 0.3; Binding of serum SARS-green to looped/cyclic peptide (PEPSCAN-ELISA) [1]: 0.3; Binding of serum SARS-yellow to looped/cyclic peptide (PEPSCAN-ELISA) [1]: 0.5
KDYVVVHGYFTEVYY,0.7,–,0.6,–,0.5,–,0.4,–,0.6,–,0.5,0.2,0.2,0.3,0.5,0.5,0.6,0.5,0.1,0.5,Binding of serum 1a to looped/cyclic peptides of protein X1 of SARS-CoV Urbani [1]: 0.5; Binding of serum 1b to looped/cyclic peptides of protein X1 of SARS-CoV Urbani [1]: 0.4; Binding of serum 2 to looped/cyclic peptides of protein X1 of SARS-CoV Urbani [1]: 0.4; Binding of serum 6 to looped/cyclic peptides of protein X1 of SARS-CoV Urbani [1]: 0.2; Binding of serum 37 to looped/cyclic peptides of protein X1 of SARS-CoV Urbani [1]: 0.6; Binding of serum 62 to looped/cyclic peptides of protein X1 of SARS-CoV Urbani [1]: 0.5; Binding of serum London to looped/cyclic peptides of protein X1 of SARS-CoV Urbani [1]: 0.2; Binding of serum SARS-green to looped/cyclic peptides of protein X1 of SARS-CoV Urbani [1]: 0.2; Binding of serum SARS-yellow to looped/cyclic peptides of protein X1 of SARS-CoV Urbani [1]: 0.5
